In US10577399B2, “Modified lantibiotics and methods of making and using the modified lantibiotics” (priority 2016, dated 2020):
Converted amounts (≈) assume the structure as drawn. Where two headings read alike, the source gives them in different places. No end group written: not given here.

What was measured:
M. luteus ATCC 10240 [1] = format: cell-based, Micrococcus luteus; conditions: for M. luteus ATCC 10240 MIC / M. luteus ATCC 10240 MLC: Table 11
Procedure: (§1) Minimum Inhibitory Concentrations (MICs) were determined according to previously published protocol^31. A stock solution of the antibiotics tested was first suspended in 50% acetonitrile (ACN) at a concentration 640 μg/mL. This stock was subsequently diluted 2-fold until a final concentration 0.156 μg/mL was reached. Subsequently, 10 μl of each dilution was placed into a well on a 96 well microtiter plate. M. luteus ATCC 10240, S. pneumoniae, and B. subtilis PY79 were grown overnight in THyex at 37° C. Cultures were diluted in the morning to 0.1 OD600 and allowed to grow to 0.6 OD600. This culture was diluted a 100-fold in fresh THyex media and then 400 μl of this culture was added to 10 mL of fresh THyex. The suspension contains approximately 10^5 colony forming units (CFUs). The bacterial suspension (190 μL) was added to each well containing 10 μL of antibiotic suspension or solvent blank. […] Following the 15 minute pretreatment, 190 μL was added to each well as described above. The MIC is described as the […] concentration of antibiotic that prevented visible growth after 24 hours.
FIG. 11 illustrates the bioactivity of various core peptide mutants of mutacin 1130. The activity of the core mutant peptides is expressed as a ratio of the area of the zone of inhibition of each mutant strain to the area of the zone of inhibition of the wild-type strain against indicator strain of Micrococcus luteus. […] The deferred antagonism assay is an overlay assay of the indicator strain onto plates containing heat killed colonies of the mutacin producer strain after growing overnight. Core peptide mutants having inhibitory activity were isolated and the purified products were further evaluated by a standard minimum inhibitory concentration (MIC) assay.

M. luteus ATCC 10240 [2] = assay: Deferred antagonism (overlay) assay, zone of inhibition; format: cell-based, Micrococcus luteus; conditions: relative to wild-type strain
Procedure: The deferred antagonism assay was performed as previously described^39. S. mutans strains were grown overnight in THyex broth at 37° C. The cultures were diluted to 0.1 OD OD600 and grown to mid-logarithmic phase before diluting to 0.05 OD600. Then, 2 μl of the cultures were spotted on THyex plates in duplicates of triplicates. The wild-type S. mutans JH1140 and S. mutans ΔmutA were used as positive and negative controls for activity, respectively. The plates were incubated for 18 hours in a candle jar at 37° C. After incubation, the strains were heat killed at 65° C. for 90 minutes. Fresh M. luteus grown overnight at 37° C. on THyex plates were used to inoculate pre-warmed THyex broth. The culture was grown to 0.6 to 0.8 OD before diluting to 0.2 OD600. The culture was further diluted 25-fold in melted (42° C.) THyex top agar. Approximately 5 mL of the top agar solution was spread on the heat killed bioassay plates and allowed to cool for 10 minutes. The plates were then placed in the incubator (at 37° C.) for 18 hours.
Streptococcus mutans ATCC 55676 (wild-type) and the mutants that were at an OD600 of 0.2 were spotted in triplicates on a pre-warmed THyex agar plate (150×15 mm) and allowed to dry. This assay was performed in this manner to ensure that each sample had the same colony size for comparing zones of inhibition. The plate was incubated for 24 hours then placed in an oven at 50° C. for thirty minutes to kill the bacteria before the indicator strain was overlaid. Heat killing the bacteria prevents any further antimicrobial compound production so that results seen are from single day incubation. Zone diameter was measured in millimeters across the plate and compared to wild-type (i.e. zone I for ATCC compared to zone I of Trp4Ala, etc.).

[3] = Pharmacokinetics after intravenous dose in mice; format: in vivo; conditions: 2.5 mg/kg i. v., BALB/c mice; at 70 minutes
Procedure: The compounds were dissolved in normal saline for all pharmacokinetic studies. An extraction protocol was developed in vitro by the addition of each compound to commercially bought BALB/c mouse serum. The compounds were extracted by the addition of 70% ACN containing 0.1% TFA/30% methanol containing 0.4% formic acid. The extract was then analyzed by LC-MS using a TSQ Vantage Triple Quad mass spectrometer. A standard curve was generated for each compound using known dilutions of the compounds in serum, which was then extracted. The R-squared values for each standard exceeded 0.98. BALB/c mice were used to evaluate pharmacokinetics of the compounds in vivo. A 2.5 mg/kg i. v. dose was evaluated for native mutacin, R13A, S5G, and double mutant S5A:T14G (FIG. 12A). A polynomial second order was used to estimate the peak plasma concentration and half-life of the R13A. […] Possibly, the Dhb14 residue may protect the peptide from trypsin-like proteases in the blood. […] Thus, taking the dynamics of cell death into account and the pharmacokinetics of the R13A, the R13A in serum is above the inhibitory concentration for S. pneumonia long enough to kill the pathogen.

S. pneumoniae ATCC 27336 = format: cell-based, Streptococcus pneumoniae; conditions: Table 11
Procedure: as §1, with “hours. […]” for “hours.”

S. aureus ATCC 25923 = assay: MIC/MLC assay against S. aureus; format: cell-based, Staphylococcus aureus; conditions: Table 11
C. accolens ATCC 49725 = assay: MIC/MLC assay against C. accolens ATCC 49725; format: cell-based; conditions: THyex broth with 1% Tween 80
C. accolens KPL 1818 = assay: MIC/MLC assay against C. accolens KPL 1818; format: cell-based; conditions: THyex broth with 1% Tween 80

Molecule | MIC (M. luteus ATCC 10240 [1]; Table 10, indicator strain Micrococcus luteus) [µg/mL] | activity relative to wild-type mutacin 1140 (M. luteus) (M. luteus ATCC 10240 [1]; purified variants) | zone of inhibition / inhibitory activity in deferred antagonism assay (M. luteus ATCC 10240 [2]) | MIC (M. luteus ATCC 10240 [1]; ATCC 10240) [µg/mL] | plasma level / clearance from blood [3] | M. luteus ATCC 10240 MIC (M. luteus ATCC 10240 [1]) [micrograms per milliliter] | M. luteus ATCC 10240 MLC (M. luteus ATCC 10240 [1]) [micrograms per milliliter] | S. pneumonia ATCC 27336 MIC (S. pneumoniae ATCC 27336) [micrograms per milliliter] | S. pneumonia ATCC 27336 MLC (S. pneumoniae ATCC 27336) [micrograms per milliliter] | S. aureus ATCC 25923 MIC (S. aureus ATCC 25923) [micrograms per milliliter] | S. aureus ATCC 25923 MLC (S. aureus ATCC 25923) [micrograms per milliliter] | C. accolens ATCC 49725 MIC (C. accolens ATCC 49725) [micrograms per milliliter] | C. accolens ATCC 49725 MLC (C. accolens ATCC 49725) [micrograms per milliliter] | C. accolens KPL 1818 MIC (C. accolens KPL 1818) [micrograms per milliliter] | C. accolens KPL 1818 MLC (C. accolens KPL 1818) [micrograms per milliliter]
C=C1NC(=O)[C@H](Cc2c[nH]c3ccccc23)NC(=O)[C@H](NC(=O)[C@H](CCCCN)NC(=O)[C@@H](N)Cc2ccccc2)CSC[C@@H](C(=O)N[C@H]2C(=O)N3CCC[C@H]3C(=O)NCC(=O)N[C@H](C(=O)N[C@@H](C)C(=O)N[C@@H](CCCNC(=N)N)C(=O)N/C(=C\C)C(=O)NCC(=O)N[C@@H]3CSC[C@@H]4NC(=O)[C@H](Cc5ccc(O)cc5)NC(=O)[C@@H](CS/C=C\NC4=O)NC(=O)[C@H](CC(N)=O)NC(=O)[C@H](Cc4ccccc4)NC3=O)CS[C@H]2C)NC(=O)[C@H](C)NC1=O [Mutant Leu6Ala] | 0.0625 (≈ 0.0281 µM) | two-fold more active | larger zone of inhibition | – | – | – | – | – | – | – | – | – | – | – | –
C=C1NC(=O)[C@H](Cc2c[nH]c3ccccc23)NC(=O)[C@H](NC(=O)[C@H](C)NC(=O)[C@@H](N)Cc2ccccc2)CSC[C@@H](C(=O)N[C@H]2C(=O)N3CCC[C@H]3C(=O)NCC(=O)N[C@H](C(=O)N[C@@H](C)C(=O)N[C@@H](CCCNC(=N)N)C(=O)N/C(=C\C)C(=O)NCC(=O)N[C@@H]3CSC[C@@H]4NC(=O)[C@H](Cc5ccc(O)cc5)NC(=O)[C@@H](CS/C=C\NC4=O)NC(=O)[C@H](CC(N)=O)NC(=O)[C@H](Cc4ccccc4)NC3=O)CS[C@H]2C)NC(=O)[C@H](CC(C)C)NC1=O [Mutant Lys2Ala] | – | – | larger zone of inhibition | 0.125 (≈ 0.0566 µM) | – | – | – | – | – | – | – | – | – | – | –
CC(C)C[C@@H]1NC(=O)[C@H](C)NC(=O)[C@H](Cc2c[nH]c3ccccc23)NC(=O)C(NC(=O)[C@H](CCCCN)NC(=O)[C@@H](N)Cc2ccccc2)CSC[C@@H](C(=O)NC2C(=O)N3CCC[C@H]3C(=O)NCC(=O)N[C@H](C(=O)N[C@@H](C)C(=O)N[C@@H](CCCNC(=N)N)C(=O)NCC(=O)NCC(=O)NC3CSC[C@@H]4NC(=O)[C@H](Cc5ccc(O)cc5)NC(=O)[C@@H](CS/C=C\NC4=O)NC(=O)[C@H](CC(N)=O)NC(=O)[C@H](Cc4ccccc4)NC3=O)CSC2C)NC1=O (some centres unmarked) [S5A:T14G] | – | – | – | – | performed the worst | – | – | – | – | – | – | – | – | – | –
C-terminal fluorescein conjugate of mutacin 1140: mu1140-COOH coupled to 5-(aminoacetamido)fluorescein at the C-terminus (FKSWSLCTPGCARTGSFNSYCC-{5‑(aminoacetamido)fluorescein}; ends and bridges not checked; UniProt O68586 42-63, looked up) | – | – | has the inhibitory activity | – | – | – | – | – | – | – | – | – | – | – | –
G15A*: core peptide mutant of mutacin 1140, Glycine 15 replaced by Alanine (FKSWSLCTPGCARTASFNSYCC; ends and bridges not checked; cysteine pairing not given here; UniProt O68586 42-63, looked up, variant G15A) | – | – | no change in activity | – | – | 0.125 | 0.125 | 0.5 | 0.5 | 16 | 16 | 1 | 1 | 1 | 2
S5G:T14G: core peptide mutant of mutacin 1140, positions 5, 14 replaced by Glycine and Glycine (FKSWGLCTPGCARGGSFNSYCC; ends and bridges not checked; cysteine pairing not given here; UniProt O68586 42-63, looked up, variant S5G T14G) | – | – | – | – | – | 0.5 | 0.5 | 2 | 2 | 8 | 16 | 1 | 1 | 0.5 | 1
S5T: core peptide mutant of mutacin 1140, Serine 5 replaced by Threonine (FKSWTLCTPGCARTGSFNSYCC; UniProt O68586 42-63, looked up, variant S5T) [Mutant S5T] | – | – | – | – | – | 4 | 4 | 2 | 2 | >32 | >32 | >4 | >4 | >4 | >4
